Experimental data taken from patent publication US11807644B2 (PMV Pharmaceuticals, Inc., priority 2020, dated 2023).

These compounds were tested against T1, recombinant His-tag Y220C p53 DBD protein (Homo sapiens, UniProt P04637, Y220C) (assay: In vitro DNA binding activity assay (TR-FRET): binding of His-tag Y220C p53 DBD to biotin-labeled consensus DNA). Conditions: SC150 = concentration to increase DNA binding by […], His-tag Y220C p53 DBD, biotin-labeled consensus DNA.
T1 construct: recombinant His-tag Y220C p53 DBD protein (amino acids #˜94-312)
Format: biochemical

SMILES | Y220C SC150 (μM)
CN1CCC(Nc2cccc3c2cc(-c2noc(CNC(=O)c4cnn(C)c4)n2)n3CC(F)(F)F)CC1 [Compound 154B, 1-methyl-N-[(3-{4-[(1-methylpiperidin-4-yl)amino]-1-(2,2,2-trifluoroethyl)-1H-indol-2-yl}-1,2,4-oxadiazol-5-yl)methyl]-1H-pyrazole-4-carboxamide] | * (* = 0 μM ≤ SC150 < 0.1 μM)
CN1CCC(Nc2cccc3c2cc(-c2noc(CNC(=O)c4ccn(C)n4)n2)n3CC(F)(F)F)CC1 [Compound 155B, 1-methyl-N-[(3-{4-[(1-methylpiperidin-4-yl)amino]-1-(2,2,2-trifluoroethyl)-1H-indol-2-yl}-1,2,4-oxadiazol-5-yl)methyl]-1H-pyrazole-3-carboxamide] | * (* = 0 μM ≤ SC150 < 0.1 μM)
O=C(NCc1nc(-c2cc3c(NC4CCOCC4)cccc3n2CC(F)(F)F)no1)C1CC1 [Compound 159B, N-[(3-{4-[(oxan-4-yl)amino]-1-(2,2,2-trifluoroethyl)-1H-indol-2-yl}-1,2,4-oxadiazol-5-yl)methyl]cyclopropanecarboxamide] | * (* = 0 μM ≤ SC150 < 0.1 μM)
O=C(NCc1nc(-c2cc3c(NCc4ccccc4)cccc3n2CC(F)(F)F)no1)C1CC1 [Compound 160B, N-({3-[4-(benzylamino)-1-(2,2,2-trifluoroethyl)-1H-indol-2-yl]-1,2,4-oxadiazol-5-yl}methyl)cyclopropanecarboxamide] | ** (** = 0.1 μM ≤ SC150 < 0.5 μM)
CC(=O)N1CCC(Nc2cccc3c2cc(-c2noc(CNC(=O)C4CC4)n2)n3CC(F)(F)F)CC1 [Compound 161B, N-[(3-{4-[(1-acetylpiperidin-4-yl)amino]-1-(2,2,2-trifluoroethyl)-1H-indol-2-yl}-1,2,4-oxadiazol-5-yl)methyl]cyclopropanecarboxamide] | * (* = 0 μM ≤ SC150 < 0.1 μM)
O=C(NCc1nc(-c2cc3c(NC4CCS(=O)(=O)CC4)cccc3n2CC(F)(F)F)no1)C1CC1 [Compound 162B, N-[(3-{4-[(1,1-dioxo-1λ^6-thian-4-yl)amino]-1-(2,2,2-trifluoroethyl)-1H-indol-2-yl}-1,2,4-oxadiazol-5-yl)methyl]cyclopropanecarboxamide] | * (* = 0 μM ≤ SC150 < 0.1 μM)
O=C(NCc1nc(-c2cc3c(NC4CCN(Cc5ccccc5)CC4)cccc3n2CC(F)(F)F)no1)C1CC1 [Compound 163B, N-[(3-{4-[(1-benzylpiperidin-4-yl)amino]-1-(2,2,2-trifluoroethyl)-1H-indol-2-yl}-1,2,4-oxadiazol-5-yl)methyl]cyclopropanecarboxamide] | * (* = 0 μM ≤ SC150 < 0.1 μM)
O=C(NCc1nc(-c2cc3c(NC4CCN(C5CC5)CC4)cccc3n2CC(F)(F)F)no1)C1CC1 [Compound 164B, N-[(3-{4-[(1-cyclopropylpiperidin-4-yl)amino]-1-(2,2,2-trifluoroethyl)-1H-indol-2-yl}-1,2,4-oxadiazol-5-yl)methyl]cyclopropanecarboxamide] | * (* = 0 μM ≤ SC150 < 0.1 μM)
O=C(NCc1nc(-c2cc3c(NCC4CC4)cccc3n2CC(F)(F)F)no1)C1CC1 [Compound 165B, N-[(3-{4-[(cyclopropylmethyl)amino]-1-(2,2,2-trifluoroethyl)-1H-indol-2-yl}-1,2,4-oxadiazol-5-yl)methyl]cyclopropanecarboxamide] | ** (** = 0.1 μM ≤ SC150 < 0.5 μM)
O=C(NCc1nc(-c2cc3c(NCC4CCC4)cccc3n2CC(F)(F)F)no1)C1CC1 [Compound 166B, N-[(3-{4-[(cyclobutylmethyl)amino]-1-(2,2,2-trifluoroethyl)-1H-indol-2-yl}-1,2,4-oxadiazol-5-yl)methyl]cyclopropanecarboxamide] | ** (** = 0.1 μM ≤ SC150 < 0.5 μM)
CCN1CCC(Nc2cccc3c2cc(-c2noc(CNC(=O)C4CC4)n2)n3CC(F)(F)F)CC1 [Compound 168B, N-[(3-{4-[(1-ethylpiperidin-4-yl)amino]-1-(2,2,2-trifluoroethyl)-1H-indol-2-yl}-1,2,4-oxadiazol-5-yl)methyl]cyclopropanecarboxamide] | * (* = 0 μM ≤ SC150 < 0.1 μM)
O=C(NCc1nc(-c2cc3c(NCC4CNC4)cccc3n2CC(F)(F)F)no1)C1CC1 [Compound 170B, N-{[3-(4-{[(432zetidine-3-yl)methyl]amino}-1-(2,2,2-trifluoroethyl)-1H-indol-2-yl)-1,2,4-oxadiazol-5-yl]methyl}cyclopropanecarboxamide] | * (* = 0 μM ≤ SC150 < 0.1 μM)
CN1CC[C@@H](Nc2cccc3c2cc(-c2noc(CNC(=O)C4CC4)n2)n3CC(F)(F)F)[C@@H](F)C1 [Compound 173B, N-{[3-(4-{[(3S,4R)-3-fluoro-1-methylpiperidin-4-yl]amino}-1-(2,2,2-trifluoroethyl)-1H-indol-2-yl)-1,2,4-oxadiazol-5-yl]methyl}cyclopropanecarboxamide] | * (* = 0 μM ≤ SC150 < 0.1 μM)
CN1CC[C@H](Nc2cccc3c2cc(-c2noc(CNC(=O)C4CC4)n2)n3CC(F)(F)F)[C@H](F)C1 [Compound 174B, N-{[3-(4-{[(3R,4S)-3-fluoro-1-methylpiperidin-4-yl]amino}-1-(2,2,2-trifluoroethyl)-1H-indol-2-yl)-1,2,4-oxadiazol-5-yl]methyl}cyclopropanecarboxamide] | * (* = 0 μM ≤ SC150 < 0.1 μM)
CN1CC[C@@H](Nc2cccc3c2cc(-c2noc(CNC(=O)c4ccn(C)c4)n2)n3CC(F)(F)F)[C@@H](F)C1 [Compound 181B, N-{[3-(4-{[(3S,4R)-3-fluoro-1-methylpiperidin-4-yl]amino}-1-(2,2,2-trifluoroehyl)-1H-indol-2-yl)-1,2,4-oxadiazol-5-yl]methyl}-1-methyl-1H-pyrrole-3-carboxamide] | * (* = 0 μM ≤ SC150 < 0.1 μM)
CN1CC[C@H](Nc2cccc3c2cc(-c2noc(CNC(=O)c4ccn(C)c4)n2)n3CC(F)(F)F)[C@H](F)C1 [Compound 182B, N-{[3-(4-{[(3R,4S)-3-fluoro-1-methylpiperidin-4-yl]amino}-1-(2,2,2-trifluoroethyl)-1H-indol-2-yl)-1,2,4-oxadiazol-5-yl]methyl}-1-methyl-1H-pyrrole-3-carboxamide] | * (* = 0 μM ≤ SC150 < 0.1 μM)

Results, then the compound that gave them:

Y220C SC150 (μM) | SMILES
* (* = 0 μM ≤ SC150 < 0.1 μM) | CCn1ccc(C(=O)NCc2nc(-c3cc4c(N[C@@H]5CCN(C)C[C@@H]5F)cccc4n3CC(F)(F)F)no2)c1 [Compound 186B, 1-ethyl-N-{[3-(4-{[(3S,4R)-3-fluoro-1-methylpiperidin-4-yl]amino}-1-(2,2,2-trifluoroethyl)-1H-indol-2-yl)-1,2,4-oxadiazol-5-yl]methyl}-1H-pyrrole-3-carboxamide]
* (* = 0 μM ≤ SC150 < 0.1 μM) | CCn1ccc(C(=O)NCc2nc(-c3cc4c(N[C@H]5CCN(C)C[C@H]5F)cccc4n3CC(F)(F)F)no2)c1 [Compound 187B, 1-ethyl-N-{[3-(4-{[(3R,4S)-3-fluoro-1-methylpiperidin-4-yl]amino}-1-(2,2,2-trifluoroethyl)-1H-indol-2-yl)-1,2,4-oxadiazol-5-yl]methyl}-1H-pyrrole-3-carboxamide]
* (* = 0 μM ≤ SC150 < 0.1 μM) | CN1CC[C@@H](Nc2cccc3c2cc(-c2noc(CNC(=O)c4ccsc4)n2)n3CC(F)(F)F)[C@@H](F)C1 [Compound 189B, N-{[3-(4-{[(3S,4R)-3-fluoro-1-methylpiperidin-4-yl]amino}-1-(2,2,2-trifluoroethyl)-1H-indol-2-yl)-1,2,4-oxadiazol-5-yl]methyl}thiophene-3-carboxamide]
* (* = 0 μM ≤ SC150 < 0.1 μM) | CN1CC[C@H](Nc2cccc3c2cc(-c2noc(CNC(=O)c4ccsc4)n2)n3CC(F)(F)F)[C@H](F)C1 [Compound 190B, N-{[3-(4-{[(3R,4S)-3-fluoro-1-methylpiperidin-4-yl]amino}-1-(2,2,2-trifluoroethyl)-1H-indol-2-yl)-1,2,4-oxadiazol-5-yl]methyl}thiophene-3-carboxamide]
* (* = 0 μM ≤ SC150 < 0.1 μM) | CN1CC[C@@H](Nc2cccc3c2cc(-c2noc(CNC(=O)c4ccn(C(C)(C)C)c4)n2)n3CC(F)(F)F)[C@@H](F)C1 [Compound 194B, 1-tert-butyl-N-{[3-(4-{[(3S,4R)-3-fluoro-1-methylpiperidin-4-yl]amino}-1-(2,2,2-trifluoroethyl)-1H-indol-2-yl)-1,2,4-oxadiazol-5-yl]methyl}-1H-pyrrole-3-carboxamide]
* (* = 0 μM ≤ SC150 < 0.1 μM) | CN1CC[C@@H](Nc2cccc3c2cc(-c2noc(CNC(=O)c4cc5ccccn5c4)n2)n3CC(F)(F)F)[C@@H](F)C1 [Compound 196B, N-{[3-(4-{[(3S,4R)-3-fluoro-1-methylpiperidin-4-yl]amino}-1-(2,2,2-trifluoroethyl)-1H-indol-2-yl)-1,2,4-oxadiazol-5-yl]methyl}indolizine-2-carboxamide]
* (* = 0 μM ≤ SC150 < 0.1 μM) | CN1CC[C@@H](Nc2cccc3c2cc(-c2noc(CNC(=O)c4cn(-c5ccccc5)cn4)n2)n3CC(F)(F)F)[C@@H](F)C1 [Compound 197B, N-{[3-(4-{[(3S,4R)-3-fluoro-1-methylpiperidin-4-yl]amino}-1-(2,2,2-trifluoroethyl)-1H-indol-2-yl)-1,2,4-oxadiazol-5-yl]methyl}-1-phenyl-1H-imidazole-4-carboxamide]
* (* = 0 μM ≤ SC150 < 0.1 μM) | COCCn1ccc(C(=O)NCc2nc(-c3cc4c(N[C@@H]5CCN(C)C[C@@H]5F)cccc4n3CC(F)(F)F)no2)c1 [Compound 198B, N-{[3-(4-{[(3S,4R)-3-fluoro-1-methylpiperidin-4-yl]amino}-1-(2,2,2-trifluoroethyl)-1H-indol-2-yl)-1,2,4-oxadiazol-5-yl]methyl}-1-(2-methoxyethyl)-1H-pyrrole-3-carboxamide]
* (* = 0 μM ≤ SC150 < 0.1 μM) | CC(C)n1ccc(C(=O)NCc2nc(-c3cc4c(N[C@@H]5CCN(C)C[C@@H]5F)cccc4n3CC(F)(F)F)no2)c1 [Compound 199B, N-{[3-(4-{[(3S,4R)-3-fluoro-1-methylpiperidin-4-yl]amino}-1-(2,2,2-trifluoroethyl)-1H-indol-2-yl)-1,2,4-oxadiazol-5-yl]methyl}-1-(propan-2-yl)-1H-pyrrole-3-carboxamide]
